Among the data in patent US8575153B2 (Kowa Company, Ltd., priority 2008, dated 2013) are inhibition and melting point values, retold here.

For orientation: inhibition means the percentage by which the read-out fell short of the control. The melting point is the temperature, or range, at which the solid turns liquid.

Series [1] has as its target Recombinant human JAK3 enzyme (JAK3 kinase region; Ala795-Ser1124) (Homo sapiens, UniProt P52333). In words: JAK3 Kinase Assay (Kinase-Glo luminescent, ATP consumption). To be noted: read-out: Inhibition rate (%) of JAK3 kinase activity. For orientation: In Kinase-Glo more light means more ATP remaining.

Chain of Recombinant human JAK3 enzyme (JAK3 kinase region; Ala795-Ser1124) (P52333 795-1124): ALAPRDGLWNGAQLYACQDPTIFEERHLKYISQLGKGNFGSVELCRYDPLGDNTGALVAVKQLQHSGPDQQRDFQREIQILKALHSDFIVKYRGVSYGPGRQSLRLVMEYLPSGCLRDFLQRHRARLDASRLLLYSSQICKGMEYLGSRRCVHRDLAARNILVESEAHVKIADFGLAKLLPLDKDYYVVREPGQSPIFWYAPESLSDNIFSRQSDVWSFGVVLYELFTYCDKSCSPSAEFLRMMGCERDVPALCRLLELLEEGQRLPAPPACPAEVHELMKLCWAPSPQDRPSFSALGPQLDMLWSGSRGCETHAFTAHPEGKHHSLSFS

`Cc1c(F)cccc1CNc1cc(Nc2ccc(N3CCOCC3)cc2)ncc1C(N)=O` [Example 100, 4-[(3-fluoro-2-methylbenzyl)amino]-6-[(4-morpholinophenyl)amino]pyridine-3-carboxyamide]: the melting point was in the range of 229 to 230 °C. Also, the inhibition at 0.1 µM in series [1] turned out to be 69%.
For `N#Cc1cc(Nc2cc(NCc3cc(F)cc(F)c3)c(C(N)=O)cn2)ccc1N1CCOCC1` [Example 125, 6-[(3-cyano-4-morpholinophenyl)amino]-4-[(3,5-difluorobenzyl)amino]pyridine-3-carboxyamide], the melting point was 213.5 to 214.1 °C (dec.). In addition, the inhibition at 0.1 µM in series [1] turned out to be 61%.
For `Cc1cc(Nc2cc(NCc3cc(F)cc(F)c3)c(C(N)=O)cn2)ccc1N1CCOCC1` [Example 126, 4-[(3,5-difluorobenzyl)amino]-6-[(3-methyl-4-morpholinophenyl)amino]-pyridine-3-carboxyamide], the melting point is 223 to 224 °C (dec.). In series [1], the inhibition at 0.1 µM worked out at 60%.
As for `NC(=O)c1cnc(Nc2ccc(N3CCOCC3)c(Cl)c2)cc1NCc1cc(F)cc(F)c1` [Example 127, 6-[(3-chloro-4-morpholinophenyl)amino]-4-[(3,5-difluorobenzyl)amino]pyridine-3-carboxyamide], the melting point was 222 to 223 °C (dec.). For the same compound, in series [1], the inhibition at 0.1 µM is 81%.
For `COc1cc(Nc2cc(NCc3cc(F)cc(F)c3)c(C(N)=O)cn2)ccc1N1CCOCC1` [Example 128, 4-[(3,5-difluorobenzyl)amino]-6-[(3-methoxy-4-morpholinophenyl)amino]pyridine-3-carboxyamide], the melting point was 229.6 to 230 °C (dec.). Further, in series [1], the inhibition at 0.1 µM was 92%.
Consider `NC(=O)c1cnc(Nc2cccc(N3CCOCC3)c2)cc1NCc1cc(F)cc(F)c1` [Example 131, 4-[(3,5-difluorobenzyl)amino]-6-[(3-morpholinophenyl)amino]pyridine-3-carboxyamide], for which the melting point was 197 to 198 °C (dec.). The inhibition at 0.1 µM in series [1] amounted to 91%.
For `C[C@@H]1CN(c2ccc(Nc3cc(NCc4c(F)cccc4F)c(C(N)=O)cn3)cc2)C[C@H](C)N1` [Example 143, 4-[(2,6-difluorobenzyl)amino]-6-({4-[(3R,5S)-3,5-dimethylpiperazin-1-yl]phenyl}amino) pyridine-3-carboxyamide], the melting point is 218 to 219 °C. In addition, the inhibition at 0.1 µM in series [1] worked out at 88%.
In the case of `CS(=O)(=O)Nc1ccc(Nc2cc(NCc3cc(F)cc(F)c3)c(C(N)=O)cn2)cc1` [Example 159, 4-[(3,5-difluorobenzyl)amino]-6-({4-[(methylsulfonyl)amino]phenyl}amino)pyridine-3-carboxyamide], the melting point is 236 to 238 °C (dec.). Also, in series [1], the inhibition at 0.1 µM was found to be 100%.
The corresponding values for `CC(C)S(=O)(=O)N1CCN(c2ccc(Nc3cc(NCc4cc(F)cc(F)c4)c(C(N)=O)cn3)cc2)CC1` [Example 170, 4-[(3,5-difluorobenzyl)amino]-6-({4-[4-(propan-2-ylsulfonyl)piperazin-1-yl]phenyl}amino) pyridine-3-carboxyamide] are 239 to 242 °C (dec.) and 68%.
In the same order, the values of `COC1CCN(c2ccc(Nc3cc(NCc4cc(F)cc(F)c4)c(C(N)=O)cn3)cc2)CC1` [Example 190, 4-[(3,5-difluorobenzyl)amino]-6-{[4-(4-methoxypiperidino)phenyl]amino}pyridine-3-carboxyamide] are 202.9 to 203.3 °C (dec.) and 89%.
In the same order, the values of `NC(=O)c1cnc(Nc2ccc(N3CCC(O)CC3)cc2)cc1NCc1cc(F)cc(F)c1` [Example 191, 4-[(3,5-difluorobenzyl)amino]-6-{[4-(4-hydroxypiperidino)phenyl]amino}pyridine-3-carboxyamide] are 238 to 240 °C (dec.) and 63%.
As to `NC(=O)c1cnc(Nc2ccc(N3CCC(=O)CC3)cc2)cc1NCc1cc(F)cc(F)c1` [Example 192, 4-[(3,5-difluorobenzyl)amino]-6-{[4-(4-oxopiperidino)phenyl]amino}pyridine-3-carboxyamide], the melting point is 223 to 226 °C (dec.). In addition, the inhibition at 0.1 µM in series [1] came out at 89%.
The compound `NCCCc1ccc(Nc2cc(NCc3cc(F)cc(F)c3)c(C(N)=O)cn2)cc1` [Example 201, 6-{[4-(3-aminopropyl)phenyl]amino}-4-[(3,5-difluorobenzyl)amino]pyridine-3-carboxyamide] gave a melting point of 180 to 181 °C. Besides, in series [1], the inhibition at 0.1 µM came out at 60%.
`NC(=O)c1cnc(Nc2ccc(N3CCCNCC3)cc2)cc1NCc1ccccc1` [Example 226, 4-(benzylamino)-6-{[4-(1,4-diazepan-1-yl)phenyl]amino}pyridine-3-carboxyamide] returned a melting point of 165 to 167 °C. Besides, in series [1], the inhibition at 0.1 µM is 61%.
`CCN(CC)CCN1CCN(c2ccc(Nc3cc(NCc4cccc([N+](=O)[O-])c4)c(C(N)=O)cn3)cc2)CC1` [Example 235, 6-[(4-{4-[2-(diethylamino)ethyl]piperazin-1-yl}phenyl)amino]-4-[(3-nitrobenzyl)amino]pyridine-3-carboxyamide] gave a melting point of 165 to 166 °C. Further, the inhibition at 0.1 µM in series [1] is 82%.
In the same order, the values of `N#CCCCN1CCN(c2ccc(Nc3cc(NCc4cccc([N+](=O)[O-])c4)c(C(N)=O)cn3)cc2)CC1` [Example 242, 6-({4-[4-(3-cyanopropyl)piperazin-1-yl]phenyl}amino)-4-[(3-nitrobenzyl)amino]pyridine-3-carboxyamide] are 190 to 191 °C (dec.) and 77%.
In the case of `NCCN1CCN(c2ccc(Nc3cc(NCc4cc(F)cc(F)c4)c(CC(N)=O)cn3)cc2)CC1` [Example 248, 6-({4-{4-(2-aminoethyl)piperazin-1-yl]phenyl}amino]-4-[(3,5-difluorobenzyl)amino]pyridine-3-carboxyamide], the melting point is 190 to 194 °C (dec.).
For the compound `CS(=O)(=O)NCCN1CCN(c2ccc(Nc3cc(NCc4cc(F)cc(F)c4)c(C(N)=O)cn3)cc2)CC1` [Example 249, 4-[(3,5-difluorobenzyl)amino]-6-{[4-(4-{2-[(methylsulfonyl)amino]ethyl}piperazin-1-yl]phenyl]amino}pyridine-3-carboxyamide], the melting point is 216 to 219 °C (dec.). Also, the inhibition at 0.1 µM in series [1] amounted to 81%.
`CNCCN1CCN(c2ccc(Nc3cc(NCc4cc(F)cc(F)c4)c(C(N)=O)cn3)cc2)CC1` [Example 251, 4-[(3,5-difluorobenzyl)amino]-6-[(4-{4-[2-(methylamino)ethyl]piperazin-1-yl}phenyl)amino]pyridine-3-carboxyamide]: the melting point was 113 to 120 °C (dec.). Moreover, in series [1], the inhibition at 0.1 µM was 88%.
On to `CC(=O)N1CCCN(c2ccc(Nc3cc(NCc4ccccc4)c(C(N)=O)cn3)cc2)CC1` [Example 256, 6-{[4-(4-acetyl-1,4-diazepan-1-yl)phenyl]amino}-4-(benzylamino)pyridine-3-carboxyamide], for which the melting point was 224 to 227 °C. Besides, the inhibition at 0.1 µM in series [1] worked out at 77%.
With `CC(C)S(=O)(=O)N1CCC(c2ccc(Nc3cc(NCc4cc(F)cc(F)c4)c(C(N)=O)cn3)cc2)CC1` [Example 296, 4-[(3,5-difluorobenzyl)amino]-6-({4-[1-(propan-2-ylsulfonyl)piperidin-4-yl]phenyl}amino) pyridine-3-carboxyamide], the melting point is 142 to 144 °C (dec.).
On to `CC(=O)N1CCCC1CNc1cc(Nc2ccc(N3CCOCC3)cc2)ncc1C(N)=O` (centres unmarked) [Example 360, 4-{[(1-acetylpyrrolidin-2-yl)methyl]amino}-6-[(4-morpholinophenyl)amino]pyridine-3-carboxyamide], for which the inhibition at 1 µM in series [1] was 57%.
With `NC(=O)c1cnc(Nc2ccc(N3CCOCC3)cc2)cc1NCC1CCCCC1` [Example 361, 4-[(cyclohexylmethyl)amino]-6-[(4-morpholinophenyl)amino]pyridine-3-carboxyamide], the inhibition at 1 µM in series [1] worked out at 83%.
On the same count and under the same terms, the figure for `NC(=O)c1cnc(Nc2ccc(N3CCOCC3)cc2)cc1NCC1CC1` [Example 362, 4-[(cyclopropylmethyl)amino]-6-[(4-morpholinophenyl)amino]pyridine-3-carboxyamide] is 40%; for `NC(=O)c1cnc(Nc2ccc(N3CCOCC3)cc2)cc1NCc1ccccn1` [Example 363, 6-[(4-morpholinophenyl)amino]-4-[(pyridin-2-ylmethyl)amino]pyridine-3-carboxyamide] it is 67%; for `NC(=O)c1cnc(-n2cnc3ccccc32)cc1NCc1cc(F)cc(F)c1` [Example 365, 6-(1H-benzimidazol-1-yl)-4-[(3,5-difluorobenzyl)amino]pyridine-3-carboxyamide] it is 62%.
Consider `N#Cc1ccc2ncn(-c3cc(NCc4cc(F)cc(F)c4)c(C(N)=O)cn3)c2c1` [Example 366, 6-(6-cyano-1H-benzimidazol-1-yl)-4-[(3,5-difluorobenzyl)amino]pyridine-3-carboxyamide], for which the inhibition at 1 µM in series [1] amounted to 9%.
Take `Cc1ccc(S(=O)(=O)n2cc(-c3cc(NCc4cc(F)cc(F)c4)c(C(N)=O)cn3)c3cccnc32)cc1` [Example 370, 4-[(3,5-difluorobenzyl)amino]-6-{1-[(4-methylphenyl)sulfonyl}-1H-pyrrolo[2,3-b]pyridin-3-yl}pyridine-3-carboxyamide]: the inhibition at 1 µM in series [1] was 13%.
Take `NC(=O)c1cnc(-c2c[nH]c3ncccc23)cc1NCc1cc(F)cc(F)c1` [Example 371, 4-[(3,5-difluorobenzyl)amino]-6-(1H-pyrrolo[2,3-b]pyridin-3-yl)pyridine-3-carboxyamide]: the inhibition at 1 µM in series [1] is 42%.
Regarding `NC(=O)c1cnc(Nc2ccncc2)cc1NCc1ccccc1` [Example 372, 4-benzylamino-6-(pyridin-4-ylamino) pyridine-3-carboxyamide], in series [1], the inhibition at 1 µM is 31%.
As for `NC(=O)c1cnc(Nc2ccc(N3CCOCC3)nc2)cc1NCc1ccccc1` [Example 373, 4-benzylamino-6-[(6-morpholinopyridin-3-yl)amino]pyridine-3-carboxyamide], the inhibition at 1 µM in series [1] was 81%.
